Data from PubChem BioAssay AID2060616 (Molecular Pharmacology Branch, DTP, NCI, 2025).

Tested on: 377384-186-R-J1-PDC complex spheroid viability
Experiment: Anticancer human tumor 377384-186-R-J1-PDC patient-derived pancreatic carcinoma cell line growth inhibition [CLK]
Details: for IC50: curve of first compound; for viability, T/C: stronger effect = lower value
Source text: A high-throughput screen of multi-cell type tumor spheroids was designed to identify active combinations of […] and targeted small molecules. Complex spheroids include a stromal component modeled by human endothelial cells (HUVEC) and fibroblasts modeled by human mesenchymal stem cells (MSCs). The concentration ranges selected for each drug and investigational agent were based upon clinically achievable concentrations if the clinical Cmax of the agent was known.
Compounds. The drugs and investigational agents: cirtuvivint (SM08502; NSC835563), CC-671 (NSC850746), vemurafenib (NSC761431), tapotoclax (NSC804041), sotorasib (NSC818433), adagrasib (NSC831453), MRTX-1133 (NSC836407), BAY2416964 (NSC825713), copanlisib (NSC816437), inavolisib (NSC800729), abemaciclib (NSC768073), osimertinib (NSC779217), entinostat (NSC756642), eltanexor (KPT-8602, NSC794443), venetoclax (NSC766270), ceralasertib (NSC777638), bortezomib (NSC756655), olaparib (NSC753686), talazoparib (NSC767125), alisertib (NSC759677), peposertib (NSC802822), gemcitabine (NSC613327), 5-fluorouracil (NSC19893), SN-38 (NSC673596), oxaliplatin (NSC266046), paclitaxel (NSC125973), and doxorubicin (NSC123127), were obtained from the National Cancer Institute (NCI) Developmental Therapeutics Program Chemical Repository. The FDA-approved anticancer drug set is available from the Developmental Therapeutics Program at https://dtp.cancer.gov/organization/dscb/obtaining/available plates.htm. […] The stock solutions were prepared in dimethyl sulfoxide (DMSO, Sigma-Aldrich, St. Louis, MO, cat. D2650), except for the platinum complexes which were prepared in saline (Quality Biological, Gaithersburg, MD, cat. 114-055-101), at 800-fold the tested concentration and stored at -70 degrees C prior to their use. All drugs and investigational agents were tested over a range starting from a high concentration at or near the clinical Cmax and decreasing in half-log increments. If the clinical Cmax for an agent had not been determined, the highest concentration tested was 10 microM.
Cell Culture. All cells were maintained in an incubator at 37 degrees C and 5% CO2 with 95% humidity. The PDC lines were cultured according to standard operating procedures established by the NCI PDMR. Briefly, all PDCs were thawed and cultured in Matrigel-coated flasks prepared with a working solution of 1X Ham's F-12 nutrient mix, without supplementation (Invitrogen, Waltham, MA, cat. 11765054), 100 U/mL penicillin-streptomycin (Invitrogen, cat. 15140122), and 2.5% Matrigel (Corning Inc., Corning, NY, cat. 354248) for the first three passages. The 947758-054-R-J2-PDC line was cultured in 6B/Colon 1A media, which includes advanced DMEM/F-12 (Thermo Fisher Scientific, cat. 12634028), 10 mM HEPES (Thermo Fisher Scientific, cat. 15630080), 1X GlutaMAX supplement (Thermo Fisher Scientific, cat. 35050061), 0.1 mg/mL primocin (InvivoGen, cat. ant-pm-2), 10% defined fetal bovine serum, heat inactivated (HyClone Laboratories Inc., cat. SH30070.03HI), 1.25 mM N-Acetyl-L-cysteine (Sigma-Aldrich, cat. A9165), 10 mM nicotinamide (Sigma-Aldrich, cat. N0636), 1X B-27 supplement (Thermo Fisher Scientific, cat. 17504044), 1X N-2 supplement (Thermo Fisher Scientific, cat. 17502048), and 10 microM Y-27632 dihydrochloride (Tocris Bioscience, cat. 1254). The 876862-298-R-J1-PDC was cultured in 6E media, which includes all 6B/Colon 1A media components plus 50% L-WRN conditioned media (ATCC, cat. CRL-3276), 50 ng/mL recombinant human EGF recombinant protein (hEGF; Thermo Fisher Scientific, cat. PHG0311), 10 ng/mL recombinant human fibroblast growth factor 10 (hGFG-10; PeproTech, cat. 100-26), 1 ng/mL recombinant human fibroblast growth factor 2 (hFGF-2; PeproTech, cat. 100-18B), and 1 µM prostaglandin E2 (PGE2; Tocris, cat. 2296). The 227483-062-R1-J1-PDC line was cultured in Panc media, containing all 6E components except hFGF-2, with the addition of 500 nM SB-431542 (Selleckchem, cat. S1067) and 10 nM gastrin (Tocris, cat. 3006). […]

[1] = second compound 0.0316 µM, first compound 0.0316 µM
[2] = second compound 0.0316 µM, first compound 0.1 µM
[3] = second compound 0.0316 µM, first compound 0.316 µM
[4] = second compound 0.0316 µM, first compound 1 µM
[5] = second compound 0.0316 µM, first compound 3.16 µM
[6] = second compound 0.0316 µM, first compound 10 µM
[7] = second compound 0.1 µM, first compound 0.0316 µM
[8] = second compound 0.1 µM, first compound 0.1 µM
[9] = second compound 0.1 µM, first compound 0.316 µM
[10] = second compound 0.1 µM, first compound 1 µM
[11] = second compound 0.1 µM, first compound 3.16 µM
[12] = second compound 0.1 µM, first compound 10 µM
[13] = second compound 0.316 µM, first compound 0.0316 µM
[14] = second compound 0.316 µM, first compound 0.1 µM
[15] = second compound 0.316 µM, first compound 0.316 µM
[16] = second compound 0.316 µM, first compound 1 µM
[17] = second compound 0.316 µM, first compound 3.16 µM
[18] = second compound 0.316 µM, first compound 10 µM
[19] = second compound 1 µM, first compound 0.0316 µM
[20] = second compound 1 µM, first compound 0.1 µM
[21] = second compound 1 µM, first compound 0.316 µM
[22] = second compound 1 µM, first compound 1 µM
[23] = second compound 1 µM, first compound 3.16 µM
[24] = second compound 1 µM, first compound 10 µM
[25] = second compound 3.16 µM, first compound 0.0316 µM
[26] = second compound 3.16 µM, first compound 0.1 µM
[27] = second compound 3.16 µM, first compound 0.316 µM
[28] = second compound 3.16 µM, first compound 1 µM
[29] = second compound 3.16 µM, first compound 3.16 µM
[30] = second compound 3.16 µM, first compound 10 µM
[31] = second compound 10 µM, first compound 0.0316 µM
[32] = second compound 10 µM, first compound 0.1 µM
[33] = second compound 10 µM, first compound 0.316 µM
[34] = second compound 10 µM, first compound 1 µM
[35] = second compound 10 µM, first compound 3.16 µM
[36] = second compound 10 µM, first compound 10 µM
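Note: spheroids exposed to agents for 7 days before reading.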
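Throughout, for viability, T/C: luminescence signal used as a stand-in for viable cells.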

## C#Cc1c(F)ccc2cc(O)cc(-c3ncc4c(N5CC6CCC(C5)N6)nc(OCC56CCCN5CC(F)C6)nc4c3F)c12 (stereo unspecified) + CN1CCN(c2cc(C(=O)Nc3cc4cc(-c5cnn(C)c5)ccc4cn3)ccn2)CC1
Second compound 0.0316 µM
  IC50: < 31.6 nM
Second compound 0.1 µM
  IC50: < 31.6 nM
Second compound 0.316 µM
  IC50: < 31.6 nM
Second compound 1 µM
  IC50: < 31.6 nM
Second compound 3.16 µM
  IC50: < 31.6 nM
Second compound 10 µM
  IC50: < 31.6 nM
[1]
  viability, T/C: 23.7%
[2]
  viability, T/C: 9.22%
[3]
  viability, T/C: 5.47%
[4]
  viability, T/C: 3.59%
[5]
  viability, T/C: 1.91%
[6]
  viability, T/C: 2.78%
[7]
  viability, T/C: 17.5%
[8]
  viability, T/C: 9.27%
[9]
  viability, T/C: 3.82%
[10]
  viability, T/C: 2.55%
[11]
  viability, T/C: 1.86%
[12]
  viability, T/C: 1.3%
[13]
  viability, T/C: 6.63%
[14]
  viability, T/C: 2.9%
[15]
  viability, T/C: 2.56%
[16]
  viability, T/C: 1.32%
[17]
  viability, T/C: 1.33%
[18]
  viability, T/C: 0.82%
[19]
  viability, T/C: 0.45%
[20]
  viability, T/C: 0.37%
[21]
  viability, T/C: 0.27%
[22]
  viability, T/C: 0.32%
[23]
  viability, T/C: 0.34%
[24]
  viability, T/C: 0.4%
[25]
  viability, T/C: 0.26%
[26]
  viability, T/C: 0.6%
[27]
  viability, T/C: 0.24%
[28]
  viability, T/C: 0.33%
[29]
  viability, T/C: 0.38%
[30]
  viability, T/C: 0.56%
[31]
  viability, T/C: 0.1%
[32]
  viability, T/C: 0.21%
[33]
  viability, T/C: 0.19%
[34]
  viability, T/C: 0.33%
[35]
  viability, T/C: 0.22%
[36]
  viability, T/C: 0.49%

## C=C(F)C(=O)N1CCN(c2nc(OCC3CCCN3C)nc3c2CCN(c2cccc4cccc(Cl)c24)C3)CC1CC#N (stereo unspecified) + CN1CCN(c2cc(C(=O)Nc3cc4cc(-c5cnn(C)c5)ccc4cn3)ccn2)CC1
Second compound 0.0316 µM
  IC50: 1890 nM
Second compound 0.1 µM
  IC50: 1630 nM
Second compound 0.316 µM
  IC50: < 31.6 nM
Second compound 1 µM
  IC50: < 31.6 nM
Second compound 3.16 µM
  IC50: < 31.6 nM
Second compound 10 µM
  IC50: < 31.6 nM
[1]
  viability, T/C: 96.6%
[2]
  viability, T/C: 97.2%
[3]
  viability, T/C: 91.7%
[4]
  viability, T/C: 83.5%
[5]
  viability, T/C: 23.2%
[6]
  viability, T/C: 0.18%
[7]
  viability, T/C: 94.1%
[8]
  viability, T/C: 101%
[9]
  viability, T/C: 81.4%
[10]
  viability, T/C: 72.5%
[11]
  viability, T/C: 22.4%
[12]
  viability, T/C: 0.15%
[13]
  viability, T/C: 30.5%
[14]
  viability, T/C: 32.5%
[15]
  viability, T/C: 30.3%
[16]
  viability, T/C: 23.9%
[17]
  viability, T/C: 17.9%
[18]
  viability, T/C: 0.31%
[19]
  viability, T/C: 1.57%
[20]
  viability, T/C: 1.56%
[21]
  viability, T/C: 2.02%
[22]
  viability, T/C: 1.49%
[23]
  viability, T/C: 1.66%
[24]
  viability, T/C: 0.44%
[25]
  viability, T/C: 0.52%
[26]
  viability, T/C: 0.83%
[27]
  viability, T/C: 0.4%
[28]
  viability, T/C: 0.56%
[29]
  viability, T/C: 0.32%
[30]
  viability, T/C: 0.34%
[31]
  viability, T/C: 0.6%
[32]
  viability, T/C: 0.4%
[33]
  viability, T/C: 0.42%
[34]
  viability, T/C: 0.45%
[35]
  viability, T/C: 0.17%
[36]
  viability, T/C: 0.19%

## CC(CO)NC(=O)c1cc(-c2ccc(Cl)cc2)nn(-c2cnn(C)c2)c1=O (stereo unspecified) + CN1CCN(c2cc(C(=O)Nc3cc4cc(-c5cnn(C)c5)ccc4cn3)ccn2)CC1
Second compound 0.0316 µM
  IC50: > 10000 nM
Second compound 0.1 µM
  IC50: > 10000 nM
Second compound 0.316 µM
  IC50: < 31.6 nM
Second compound 1 µM
  IC50: < 31.6 nM
Second compound 3.16 µM
  IC50: < 31.6 nM
Second compound 10 µM
  IC50: < 31.6 nM
[1]
  viability, T/C: 104%
[2]
  viability, T/C: 118%
[3]
  viability, T/C: 101%
[4]
  viability, T/C: 93.5%
[5]
  viability, T/C: 82.3%
[6]
  viability, T/C: 51.5%
[7]
  viability, T/C: 107%
[8]
  viability, T/C: 105%
[9]
  viability, T/C: 85.5%
[10]
  viability, T/C: 101%
[11]
  viability, T/C: 77.7%
[12]
  viability, T/C: 57%
[13]
  viability, T/C: 33.6%
[14]
  viability, T/C: 30.6%
[15]
  viability, T/C: 27.8%
[16]
  viability, T/C: 31.3%
[17]
  viability, T/C: 31.9%
[18]
  viability, T/C: 29.1%
[19]
  viability, T/C: 1.54%
[20]
  viability, T/C: 1.76%
[21]
  viability, T/C: 1.91%
[22]
  viability, T/C: 1.77%
[23]
  viability, T/C: 2.49%
[24]
  viability, T/C: 2.71%
[25]
  viability, T/C: 0.34%
[26]
  viability, T/C: 1%
[27]
  viability, T/C: 0.42%
[28]
  viability, T/C: 0.4%
[29]
  viability, T/C: 0.66%
[30]
  viability, T/C: 0.95%
[31]
  viability, T/C: 0.55%
[32]
  viability, T/C: 0.43%
[33]
  viability, T/C: 0.69%
[34]
  viability, T/C: 0.78%
[35]
  viability, T/C: 0.94%
[36]
  viability, T/C: 0.42%
